According to the supplement of paper PMC10307832:

Tests used:
Assay in all cases: relative viability (nuclei count vs DMSO), 5 days (fraction); higher = more cells survive
Lestaurtinib + Dasatinib = compound: C[C@]12O[C@H](C[C@]1(O)CO)n1c3ccccc3c3c4c(c5c6ccccc6n2c5c31)CNC4=O [Lestaurtinib] + Cc1nc(Nc2ncc(C(=O)Nc3c(C)cccc3Cl)s2)cc(N2CCN(CCO)CC2)n1 [Dasatinib] (partner 0.075 µM)
How it was run: (§1)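 Dosing by pin tool came one day after lung cancer cell lines were seeded in 1536-well plates, using either one drug or a fixed anchor-drug dose plus five library-drug doses (not always all listed) in √10 steps. After 5 days, nuclei were counted on 4× images. Relative viability is treated-well nuclei count divided by vehicle-well nuclei count, and values are medians of duplicate plates.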

TPCA-1 + Trametinib = compound: C1=CC(=CC=C1C2=CC(=C(S2)NC(=O)N)C(=O)N)F [TPCA-1] + CC(=O)Nc1cccc(-n2c(=O)n(C3CC3)c(=O)c3c(Nc4ccc(I)cc4F)n(C)c(=O)c(C)c32)c1 [Trametinib] (partner 0.02 µM)
How it was run: as §1

TPCA-1 + Pemetrexed = compound: C1=CC(=CC=C1C2=CC(=C(S2)NC(=O)N)C(=O)N)F [TPCA-1] + Nc1nc2[nH]cc(CCc3ccc(C(=O)N[C@@H](CCC(=O)O)C(=O)O)cc3)c2c(=O)[nH]1 [Pemetrexed] (partner 0.2 µM)
How it was run: as §1

[1] = compound: C1/C(=C\C2=CC=CS2)/C(=O)/C(=C/C3=CC=CS3)/C1 + Cc1cc(Nc2cc(N3CCN(C)CC3)nc(Sc3ccc(NC(=O)C4CC4)cc3)n2)n[nH]1 [Tozasertib] (partner 0.1 µM)
How it was run: as §1

Row | Cell Line | relative viability (Lestaurtinib + Dasatinib; first compound 0.005 µM) | relative viability (Lestaurtinib + Dasatinib; first compound 0.01581 µM) | relative viability (Lestaurtinib + Dasatinib; first compound 0.05 µM) | relative viability (Lestaurtinib + Dasatinib; first compound 0.1581 µM) | relative viability (Lestaurtinib + Dasatinib; first compound 0.5 µM) | relative viability (TPCA-1 + Trametinib; first compound 0.04 µM) | relative viability (TPCA-1 + Trametinib; first compound 0.1265 µM) | relative viability (TPCA-1 + Trametinib; first compound 0.4 µM) | relative viability (TPCA-1 + Trametinib; first compound 1.265 µM) | relative viability (TPCA-1 + Trametinib; first compound 4 µM) | relative viability (TPCA-1 + Pemetrexed; first compound 0.04 µM) | relative viability (TPCA-1 + Pemetrexed; first compound 0.1265 µM) | relative viability (TPCA-1 + Pemetrexed; first compound 0.4 µM) | relative viability (TPCA-1 + Pemetrexed; first compound 1.265 µM) | relative viability (TPCA-1 + Pemetrexed; first compound 4 µM) | relative viability ([1]; first compound 0.2 µM) | relative viability ([1]; first compound 0.6325 µM) | relative viability ([1]; first compound 2 µM) | relative viability ([1]; first compound 6.325 µM) | relative viability ([1]; first compound 20 µM)
1 | NCI-H2170 | 0.493 | 0.551 | 0.466 | 0.364 | 0.376 | 0.903 | 0.907 | 0.937 | 0.866 | 0.455 | 0.273 | 0.34 | 0.288 | 0.28 | 0.265 | 0.689 | 0.716 | 0.73 | 0.563 | 0.728
2 | NCI-H2228 | 0.494 | 0.546 | 0.497 | 0.22 | 0.18 | 0.443 | 0.517 | 0.671 | 0.346 | 0.155 | 0.364 | 0.322 | 0.319 | 0.316 | 0.306 | 0.239 | 0.235 | 0.246 | 0.145 | 0.261
3 | NCI-H2342 | 0.328 | 0.314 | 0.264 | 0.313 | 0.259 | 0.792 | 0.685 | 0.79 | 0.829 | 0.944 | 0.821 | 0.709 | 0.778 | 0.609 | 0.584 | 0.521 | 0.567 | 0.561 | 0.443 | 0.459
4 | NCI-H2347 | 0.278 | 0.15 | 0.319 | 0.252 | 0.253 | 0.26 | 0.316 | 0.276 | 0.266 | 0.252 | 0.385 | 0.419 | 0.417 | 0.385 | 0.424 | 0.666 | 0.574 | 0.596 | – | 0.738
5 | NCI-H2405 | 0.199 | 0.211 | 0.186 | 0.196 | 0.17 | 0.662 | 0.606 | 0.722 | 0.469 | 0.638 | 1.09 | 1.03 | 1.02 | 1.02 | 0.914 | 0.775 | 0.774 | 0.862 | 0.72 | 0.76
6 | NCI-H3122 | 0.881 | 0.871 | 0.869 | 1.15 | 0.598 | 0.228 | 0.177 | 0.228 | 0.243 | 0.215 | 0.203 | 0.23 | 0.222 | 0.191 | 0.19 | 0.393 | 0.498 | 0.396 | 0.391 | 0.442
7 | PC-3 [JPC-3] | 1.01 | 1.02 | 0.843 | 0.857 | 0.483 | 0.755 | 0.692 | 0.73 | 0.757 | 0.642 | 1.17 | 1.03 | 1.22 | 1.09 | 0.535 | 0.924 | 0.843 | 0.824 | 0.746 | 0.896
8 | PC-14 | 0.294 | 0.286 | 0.231 | 0.13 | 0.0741 | 0.885 | 0.687 | 0.79 | 0.705 | 0.57 | 0.136 | 0.128 | 0.133 | 0.134 | 0.138 | 0.604 | 0.59 | 0.597 | 0.571 | 0.595
9 | RERF-LC-KJ | 0.902 | 0.908 | 0.526 | 0.648 | 0.316 | 0.852 | 0.786 | 0.89 | 0.756 | 0.732 | 0.473 | 0.474 | 0.469 | 0.524 | 0.488 | 0.475 | 0.566 | 0.533 | 0.46 | 0.455
10 | SK-LU-1 | 0.155 | 0.168 | 0.146 | 0.161 | 0.126 | 0.532 | 0.452 | 0.474 | 0.396 | 0.263 | 1.03 | 0.94 | 0.986 | 0.831 | 0.73 | 0.329 | 0.385 | 0.419 | 0.271 | 0.36
11 | SK-MES-1 | 0.396 | 0.333 | 0.426 | 0.206 | 0.159 | 0.536 | 0.524 | 0.507 | 0.429 | 0.39 | 0.925 | 0.808 | 0.91 | 0.769 | 0.631 | 0.922 | 0.977 | 0.942 | 0.818 | 0.831
12 | SW 900 | 0.739 | 0.702 | 0.445 | 0.57 | 0.32 | – | – | 0.775 | 0.909 | 0.764 | – | – | 0.492 | 0.495 | 0.468 | 0.514 | 0.567 | 0.558 | 0.618 | 0.584
13 | SW 1573 | 0.605 | 0.454 | 0.246 | 0.162 | 0.0823 | 0.611 | 0.569 | 0.535 | 0.516 | 0.545 | 0.792 | 0.823 | 0.844 | 0.924 | 0.715 | 0.175 | 0.13 | 0.176 | 0.158 | 0.139
